Results from patent publication US9073975B2, “Cyclic peptides, their preparation and their use as inhibitors of the platelet adhesion” (SANOFI, priority 2010, dated 2015).
Starred links: 1 amine or outer side, 2 acyl side, 3 side chain; linkers in the order of their positions; H or OH if unused. Non-standard residues stand in square brackets, D forms with d. Residues, ends and D or L forms follow the SMILES beside them. NH(CH2)9CO = O=C(CCCCCCCCCN[*:1])[*:2]; Dap = NC[C@H](N)C(=O)O; Ac3c = NC1(C(=O)O)CC1; Aib = CC(C)(N)C(=O)O; Ahp = NCCCCCCC(=O)O; Ava = NCCCCC(=O)O; GABA = NCCCC(=O)O

Molecular target: T1, recombinant human vWF-A1 domain (Homo sapiens, UniProt P07359)
T1 construct: whole blood drawn from voluntary donors; made in house; host or cells: E. coli (vWF-A1); washed platelets from human donor blood (GPIb, endogenous)
Assay: Static human platelet adhesion to recombinant human vWF-A1 domain
Format: cell-based
Conditions: washed calcein AM labeled human platelets, static conditions, 1.5 h adhesion; read-out: Activity (IC50 for inhibition of the binding of platelets to vWF A1 domain)
Protocol: The activity of compounds of the formula I can be shown by procedures known in the art, for example by determining their inhibition of the binding of platelets to vWF A1 domain in an appropriate assay. To this end, assay plates can be coated with vWF-A1 domain. […] Then fluorescence-labeled thrombocytes are added and incubated for 90 minutes. In a complex washing procedure all non-bound thrombocytes are removed and the plates are measured, for example in a laser-based reader Acumen Explorer or a bulk reader like Spectramax. […] To assess the effect of compounds on the interaction of the GPIb complex on platelets with vWF, an assay system was used measuring binding of human platelets to recombinant human vWF-A1 domain under static conditions in the presence and absence of the compounds. […] Platelet rich plasma was carefully removed, transferred to a fresh container and spun down for 15 min at 120 g. Platelet rich plasma was carefully transferred again to fresh containers, PGE1 (0.5 μg/ml, Sigma) was added and the suspension was allowed to rest for 5 min. This was followed by another centrifugation step for 15 min at 360 g. The supernatant was discarded and the cell pellets were carefully resuspended in tyrode buffer (NaCl, 137 mM (Sigma S-3014); KCl, 2.7 mM (Sigma P-9541); NaHCO3,12 mM ([…] 31437); NaH2PO4×2H2O, 0.36 mM (Merck 6345); […] After 5 min of resting the suspension was spun down for 15 min at 300 g. The supernatant was discarded and the pellets were carefully resuspended in TBS buffer (Tris-HCl, 50 mM (Fluka 93371); NaCl, 120 mM (Sigma S-3014); KCl, 2.7 mM (Sigma P-9541); CaCl2, 0.05 mM (Sigma C-3306); MgCl2×6 H2O, 2 mM (Sigma M-2670); […] The platelet count was adjusted to 2×10^5 cells/μl, and the suspensions from individual donors were pooled at this stage. The platelets were allowed to rest for 30 min at room temperature before calcein AM (2.5 μM per 2×10^5 cells/μl (Molecular Probes C-3099)) was added. This was followed by 15 min incubation in the dark. Cells were diluted to 5×10^4 cells/μl and ReoPro (3 μg/ml (Centocor B. V., Leiden, N L)) was added, followed by a 10 min incubation period in the dark before adding the platelets to the assay plates. 96 well plates (Greiner hb, black, clear bottom, F, 655097) were coated with human recombinant vWF-A1 domain (1.5 μg/well, AA 475-706, expressed in E. coli) in Tris buffer (pH 7.4; Tris-HCl, 25 mM; NaCl, 150 mM) and incubated for 1 h at room temperature. After washing the wells 3× with TBS, blocking buffer (TBS with 5% BSA) was added followed by an incubation for 1 h. The wells were washed again 3× with TBS before 200 μl TBS were added to each well, preventing them from drying out. TBS was flicked out and serial dilutions of the test compound were added. The washed and calcein AM labeled thrombocytes were added to the wells (2.5×10^6 cells/well). Following an adhesion period of 1.5 h in the dark the wells were washed 3× with TBS. Measurement of fluorescence per well was performed in a SpectraMax M5 reader (Molecular Devices). From the raw data % inhibition and IC50 values were calculated.

T1 sequence (P07359 17-652): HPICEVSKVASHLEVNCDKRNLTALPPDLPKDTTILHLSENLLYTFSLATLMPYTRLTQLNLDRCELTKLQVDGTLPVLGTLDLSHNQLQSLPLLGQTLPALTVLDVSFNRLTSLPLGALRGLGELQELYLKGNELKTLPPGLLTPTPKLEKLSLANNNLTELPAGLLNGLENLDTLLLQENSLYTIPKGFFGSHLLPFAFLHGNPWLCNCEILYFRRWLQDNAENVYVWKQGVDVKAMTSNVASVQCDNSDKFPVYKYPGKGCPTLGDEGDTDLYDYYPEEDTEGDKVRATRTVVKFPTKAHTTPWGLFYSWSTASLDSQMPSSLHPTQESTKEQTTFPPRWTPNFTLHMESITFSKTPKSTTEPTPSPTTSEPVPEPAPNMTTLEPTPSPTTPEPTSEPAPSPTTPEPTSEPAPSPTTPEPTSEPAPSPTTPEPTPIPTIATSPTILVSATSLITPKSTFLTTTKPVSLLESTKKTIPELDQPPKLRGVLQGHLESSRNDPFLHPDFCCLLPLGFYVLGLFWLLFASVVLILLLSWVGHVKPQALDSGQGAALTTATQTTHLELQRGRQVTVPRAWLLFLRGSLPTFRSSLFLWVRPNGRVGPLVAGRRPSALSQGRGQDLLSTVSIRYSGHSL
T1 sequence (P13224 26-206 partner): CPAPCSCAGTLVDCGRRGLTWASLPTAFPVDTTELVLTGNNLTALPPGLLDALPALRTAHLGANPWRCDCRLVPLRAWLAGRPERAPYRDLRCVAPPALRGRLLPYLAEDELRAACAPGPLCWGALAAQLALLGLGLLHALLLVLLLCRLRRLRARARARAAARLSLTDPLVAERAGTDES
T1 sequence (P14770 17-177 partner): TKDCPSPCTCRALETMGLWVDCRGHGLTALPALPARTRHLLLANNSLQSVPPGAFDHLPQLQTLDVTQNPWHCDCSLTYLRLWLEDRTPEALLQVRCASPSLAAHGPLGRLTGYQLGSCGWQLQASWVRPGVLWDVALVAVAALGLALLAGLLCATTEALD

IC50 [µM]	Structure (SMILES)
1 to 10	CSCC[C@@H]1NC(=O)[C@H](CCCNC(=N)N)NC(=O)[C@H](CCC(=O)O)NC(=O)[C@H]([C@@H](C)O)NC(=O)[C@H](CC(N)=O)NC(=O)CCCNC(=O)[C@H](CC(C)C)NC(=O)[C@H](CC(N)=O)NC(=O)[C@H](Cc2c[nH]cn2)NC(=O)[C@H](CC(C)C)NC(=O)[C@H](C)NC1=O [Example 50, Cyclo[Leu-His-Asn-Leu-NH—(CH2)3—CO-Asn-Thr-Glu-Arg-Met-Ala]] (cyclo(ALHNL[GABA]NTERM))
1 to 10	CSCC[C@@H]1NC(=O)[C@H](CCCNC(=N)N)NC(=O)[C@H](CCC(=O)O)NC(=O)[C@H]([C@@H](C)O)NC(=O)C(C)(C)NC(=O)CCCNC(=O)[C@H](CC(C)C)NC(=O)[C@H](CC(N)=O)NC(=O)[C@H](Cc2c[nH]cn2)NC(=O)[C@H](CC(C)C)NC(=O)[C@H](C)NC1=O [Example 53, Cyclo[Leu-His-Asn-Leu-NH—(CH2)3—CO-Aib-Thr-Glu-Arg-Met-Ala]] (cyclo(ALHNL[GABA][Aib]TERM))
1 to 10	CSCC[C@@H]1NC(=O)[C@H](CCCNC(=N)N)NC(=O)[C@H](CCC(=O)O)NC(=O)[C@H]([C@@H](C)O)NC(=O)C2(CC2)NC(=O)CCCNC(=O)[C@H](CC(C)C)NC(=O)[C@H](CC(N)=O)NC(=O)[C@H](Cc2c[nH]cn2)NC(=O)[C@H](CC(C)C)NC(=O)[C@H](C)NC1=O [Example 54, Cyclo[Leu-His-Asn-Leu-NH—(CH2)3—CO-Ac3-Thr-Glu-Arg-Met-Ala]] (cyclo(ALHNL[GABA][Ac3c]TERM))
1 to 10	CSCC[C@@H]1NC(=O)[C@H](CCCNC(=N)N)NC(=O)[C@H](CCC(=O)O)NC(=O)[C@H]([C@@H](C)O)NC(=O)CCCCCCNC(=O)[C@H](CC(C)C)NC(=O)[C@H](CC(N)=O)NC(=O)[C@H](Cc2c[nH]cn2)NC(=O)[C@H](CC(C)C)NC(=O)[C@H](CCC(N)=O)NC1=O [Example 55, Cyclo[Leu-His-Asn-Leu-NH—(CH2)6—CO-Thr-Glu-Arg-Met-Gln]] (cyclo([Ahp]TERMQLHNL))

Continued, compound first:

Structure (SMILES)	IC50 [µM]
COC[C@@H]1NC(=O)[C@H](CCCNC(=N)N)NC(=O)[C@H](CCC(=O)O)NC(=O)[C@H]([C@@H](C)O)NC(=O)CCCCCCNC(=O)[C@H](CC(C)C)NC(=O)[C@H](CC(N)=O)NC(=O)[C@H](Cc2c[nH]cn2)NC(=O)[C@H](CC(C)C)NC(=O)[C@H](C)NC1=O [Example 45, Cyclo[Leu-His-Asn-Leu-NH—(CH2)6—CO-Thr-Glu-Arg-Amp-Ala]] (cyclo(ALHNL[Ahp]TERS(Me)))	< 1
CSCC[C@@H]1NC(=O)[C@H](CCCNC(=N)N)NC(=O)[C@H](CCC(=O)O)NC(=O)[C@H]([C@@H](C)O)NC(=O)CCCCNC(=O)CNC(=O)[C@H](CC(C)C)NC(=O)[C@H](CC(N)=O)NC(=O)[C@H](Cc2c[nH]cn2)NC(=O)[C@H](CC(C)C)NC(=O)[C@H](C)NC1=O [Example 46, Cyclo[Leu-His-Asn-Leu-Gly-NH—(CH2)4—CO-Thr-Glu-Arg-Met-Ala]] (cyclo(ALHNLG[Ava]TERM))	1 to 10
CSCC[C@@H]1NC(=O)[C@H](CCCNC(=N)N)NC(=O)[C@H](CCC(=O)O)NC(=O)[C@H]([C@@H](C)O)NC(=O)CCCCCCCCCNC(=O)[C@H](CC(C)C)NC(=O)[C@H](CC(N)=O)NC(=O)[C@H](Cc2c[nH]cn2)NC(=O)[C@H](CC(C)C)NC(=O)[C@H](C)NC1=O [Example 47, Cyclo[Leu-His-Asn-Leu-NH—(CH2)9—CO-Thr-Glu-Arg-Met-Ala]] (cyclo(ALHNL[NH(CH2)9CO]TERM))	1 to 10
CSCC[C@@H]1NC(=O)[C@H](CCCNC(=N)N)NC(=O)[C@H](CCC(=O)O)NC(=O)[C@H]([C@@H](C)O)NC(=O)CCCNC(=O)[C@H](CN)NC(=O)[C@H](CC(C)C)NC(=O)[C@H](CC(N)=O)NC(=O)[C@H](Cc2c[nH]cn2)NC(=O)[C@H](CC(C)C)NC(=O)[C@H](C)NC1=O [Example 49, Cyclo[Leu-His-Asn-Leu-Dpr-NH—(CH2)3—CO-Thr-Glu-Arg-Met-Ala]] (cyclo(ALHNL[Dap][GABA]TERM))	1 to 10
